Measured values from article PMC12311725, “Identification of Ginsentide-like Peptides from Cacao Beans with Oxidative Stress Protection” (ACS Omega, 2025).
Where a SMILES comes first, the peptide text is derived from it. Bridges are numbered along the chain shown (N, C = ends). Where no end group is shown, it is not given here. The star is where a group is joined. 5FAM = O=C1OC2(c3ccc(O)cc3Oc3cc(O)ccc32)c2ccc(C(=O)*)cc21; Cam = NC(=O)C*

What was measured:
HaCaT keratinocytes = assay: Live-cell confocal microscopy of internalization; type: cell-based, human; conditions: 1 μM, 37 °C, 1 h, Z-stack confocal fluorescence
Procedure: HaCaT (human keratinocyte) cells were cultured in Dulbecco’s modification of Eagle’s medium (DMEM) supplemented with 10% fetal bovine serum and 100 U/mL penicillin and streptomycin. They were grown in a 5% CO2 humidified incubator at 37 °C
To examine the internalization of FAM-tC1 in living cells, the cells were seeded on an 8-well chamber slide (Ibidi). Prior to incubation with FAM-tC1, the cells were stained with […]. FAM-tC1 was incubated on cells in phenol red-free and serum-free medium for 1 h at 37 °C. The slides were washed gently with PBS three times, and the medium was replaced prior to imaging. The slides were observed by using a Zeiss LSM 980 confocal microscope.
8 Confocal image of fluorescent labeled FAM-tC1 in HaCaT keratinocytes. (A) 1 μM FAM-tC1 was incubated with HaCaT keratinocytes at 37 °C for 1 h, and Z-stack confocal analysis was performed. Green: FAM-tC1; Blue: Nucleus. The red outline indicates the region of interest (ROI) which is presented as a 3D-rendered Z-stack image on the right. (B) Fluorescence intensity line profiles measured across the ROI at three representative z-depths (bottom, middle, and top slice).

trypsin = assay: Peptide stability assay with trypsin (RP-HPLC); type: in vitro ADME; conditions: trypsin in 0.1 M ammonium bicarbonate buffer pH 8, 37 °C, 6 h; peptide 0.1 M [sic]; RP-HPLC peak area as % of initial
Procedure: (§1) Stability studies were conducted using purified cocotide tC1 (0.1 M) and S-alkylated tC1 (iodoacetamido) under specific buffer conditions. Pepsin stability was assessed by incubating the samples in a mixture of pepsin at a ratio of 50:1 (w/v) in 0.2 M HCl at 37 °C. For trypsin stability, the samples were treated with trypsin in 0.1 M ammonium bicarbonate buffer (pH 8) at 37 °C. Analysis of stability assays involved collecting samples at various time points, which were then analyzed by reversed-phase high-performance liquid chromatography (RP-HPLC) using a linear gradient of mobile phase A (0.05% trifluoroacetic acid in water) and mobile phase B (0.05% trifluoroacetic acid in acetonitrile) on an Aeris Peptide XB-C18 column (Phenomenex). The stability results were expressed as a percentage of the initial concentration and determined by the peak area of the HPLC profile.
(§2) 7 Proteolytic stability assays of cocotide tC1. Cocotide tC1 was incubated with either pepsin or trypsin at 37 °C for up to 6 h. S-alkylated tC1 was used as the control. At different time points, samples of cocotide tC1 and the control were quantified using reversed-phase high pressure liquid chromatography (RP-HPLC). The relative peak areas of the RP-HPLC profiles were used to quantify the percentage of peptides remaining after incubation with pepsin or trypsin.

pepsin = assay: Peptide stability assay with pepsin (RP-HPLC); type: in vitro ADME; conditions: pepsin 50:1 (w/v) in 0.2 M HCl, 37 °C, 6 h; peptide 0.1 M [sic]; RP-HPLC peak area as % of initial
Procedure: as §1, §2

[1] = Ferric Reducing Antioxidant Power (FRAP) assay; conditions: OxiSelect FRAP Assay Kit
Procedure: OxiSelect Ferric Reducing Antioxidant Power (FRAP) Assay Kit (Cell Biolabs, USA) was used to measure the antioxidant potential of cocotide tC1. The assay was performed according to the manufacturer’s instructions .

[2] = Post-translational modification analysis of methionine oxidation (tims-TOF MS/MS); type: physicochemical; conditions: native peptide from aqueous extract
Procedure: The primary sequences of cocotides from Theobroma cacao aqueous extracts were determined by LC-MS/MS sequencing as described previously. The C18-SPE fractionated Theobroma cacao aqueous extracts were redissolved in 20 mM DTT at 37 °C for 1 h followed by S-alkylation with 200 mM iodoacetamide at 37 °C for 1 h. The mixture was desalted with a C18 Zip-tip and subjected to analysis on a trapped ion mobility spectrometer-time-of-flight tandem mass spectrometer (tims-TOF MS/MS). Data analysis was performed using PEAKS Studio (version 11, Bioinformatics Solutions, Waterloo, ON, Canada) with a precursor ion tolerance of 10 ppm and a fragment ion tolerance of 0.05 Da. Carbamidomethylation at Cys was set as a fixed modification. Deamidation of […], oxidation of Met, and acetylation at Lys and N-term were set as variable modification. Peptide sequencing was performed using PEAKS DB protein identification, which integrates database search of an in-house ginsentide-like peptide library derived from Theobroma cacao transcriptome with de novo sequencing.

Molecule: CC[C@H](C)[C@@H]1NC(=O)CNC(=O)[C@H](CCSC)NC(=O)[C@@H]2CCCN2C(=O)[C@H](Cc2ccc(O)cc2)NC(=O)[C@H](CC(C)C)NC(=O)[C@@H]2CSSC[C@@H]3NC(=O)[C@H](Cc4ccccc4)NC(=O)CNC(=O)CNC(=O)[C@H](C)NC(=O)[C@H](CO)NC(=O)[C@H](CC(C)C)NC(=O)[C@@H](NC(=O)[C@@H](N)CCCCNC(=O)c4ccc5c(c4)C(=O)OC54c5ccc(O)cc5Oc5cc(O)ccc54)CSSC[C@@H]4NC(=O)[C@H](CSSC[C@H](NC1=O)C(=O)N[C@@H](Cc1ccc(O)cc1)C(=O)NCC(=O)N[C@@H](CO)C(=O)NCC(=O)N[C@H](C(=O)O)CSSC[C@H](NC(=O)[C@H](CC(N)=O)NC(=O)CNC4=O)C(=O)NCC(=O)N2)NC(=O)[C@H](CC(=O)O)NC(=O)[C@H](CCSC)NC(=O)[C@@H]1CCCN1C(=O)[C@H](CC(N)=O)NC(=O)[C@H](Cc1ccccc1)NC(=O)[C@H](CCSC)NC3=O [FAM-tC1] (H-K(5FAM)CLSAGGFCMFNPMDCCGNCGCLYPMGICYGSGC-OH; disulfide 2-17, 9-22, 16-29, 20-34)
- fluorescent signal in the nucleus (HaCaT keratinocytes): no fluorescent signals were detected in the nucleus
- cell penetration (internalization) (HaCaT keratinocytes; serum-free medium): readily penetrates the cells

Molecule: CC[C@H](C)[C@H](NC(=O)CNC(=O)[C@H](CCSC)NC(=O)[C@@H]1CCCN1C(=O)[C@H](Cc1ccc(O)cc1)NC(=O)[C@H](CC(C)C)NC(=O)[C@H](CSCC(N)=O)NC(=O)CNC(=O)[C@H](CSCC(N)=O)NC(=O)[C@H](CC(N)=O)NC(=O)CNC(=O)[C@H](CSCC(N)=O)NC(=O)[C@H](CSCC(N)=O)NC(=O)[C@H](CC(=O)O)NC(=O)[C@H](CCSC)NC(=O)[C@@H]1CCCN1C(=O)[C@H](CC(N)=O)NC(=O)[C@H](Cc1ccccc1)NC(=O)[C@H](CCSC)NC(=O)[C@H](CSCC(N)=O)NC(=O)[C@H](Cc1ccccc1)NC(=O)CNC(=O)CNC(=O)[C@H](C)NC(=O)[C@H](CO)NC(=O)[C@H](CC(C)C)NC(=O)[C@@H](N)CSCC(N)=O)C(=O)N[C@@H](CSCC(N)=O)C(=O)N[C@@H](Cc1ccc(O)cc1)C(=O)NCC(=O)N[C@@H](CO)C(=O)NCC(=O)N[C@@H](CSCC(N)=O)C(=O)O [S-alkylated cocotide tC1, reference compound] (H-C(Cam)LSAGGFC(Cam)MFNPMDC(Cam)C(Cam)GNC(Cam)GC(Cam)LYPMGIC(Cam)YGSGC(Cam)-OH)
- structural integrity retained (percentage of peptide remaining) after incubation with trypsin (trypsin): degraded rapidly
- structural integrity retained (percentage of peptide remaining) after incubation with pepsin (pepsin): degraded rapidly

Molecule: O=C1O[C@H]([C@@H](O)CO)C(O)=C1O [ascorbic acid, reference compound]
- FRAP value [1]: 0.36 Fe^2+ μM/μM

Molecule: CLSAGGFCMFIPMDCCGNCGCLFPMGFCYGSGC (disulfide (positions not given here)) [cocotide tC2, ginsentide-like cysteine-rich peptide found in T. cacao aqueous extract]
- methionine oxidation pattern [2]: Met9 was more prone to oxidation than Met13

Molecule: CLSAGGFCVFNPMDCCGNCGCLYPMGICYGSGC (disulfide (positions not given here)) [cocotide tC7, ginsentide-like cysteine-rich peptide found in T. cacao aqueous extract]
- methionine oxidation pattern [2]: minimal oxidation
